In US20130337564A1, “Treatment of Pluripotent Cells” (Janssen Biotech, Inc., priority 2012, published 2013):
Where “and” joins values, the source holds several entries; their conditions need not be identical. Equal entries are not always repeated.

Experiments:
[1] = tested on: human embryonic stem cells (H9 or H1 lines); test: Plate reader (MTS) proliferation assay; format: cell-based; conditions: for activity at 10 µM: Homo sapiens, Embryonic stem cell, 96 h; for activity at 10 µM / % Control Value (proliferation): 10 μM test compound with 100 ng/ml activin A on days 1-2, MTS OD490 on day 4, vs Activin A/Wnt3a positive control, strong and moderate hits; for Average (of Raw Data): plate reader raw signal, mean of replicate wells, proliferation of human embryonic stem cells; for Average: average of replicate raw data; for Raw Data: replicate wells, plate reader proliferation screen of GSK-3B inhibitors
Procedure: Maintenance of human embryonic stem cells (H9 or H1 lines) was conducted as described in Example 1. Colonies of cells were maintained in an undifferentiated, pluripotent state with passage on average every four days. Passage was performed by exposing cell cultures to a solution of collagenase (1 mg/ml; Sigma-Aldrich) for 10 to 30 minutes at 37° C. followed by gentle scraping with a pipette tip to recover cell clusters. Clusters were allowed to sediment and washed to remove residual collagenase. Cell clusters were split at a ratio of 1:3 monolayer area for routine culture or a 1:1 ratio for immediate assay. The human embryonis stem cell lines used for these examples were maintained at passage numbers less than 50 and routinely evaluated for normal karyotypic phenotype as well as absence of mycoplasm contamination.
Cell clusters used in assay were evenly resuspended in normal culture medium and plated into MATRIGEL-coated 96-well Packard VIEWPLATES (PerkinElmer) in volumes of 100 μl/well. MEF conditioned medium supplemented with 8 ng/ml bFGF) was used for initial plating and recovery. Daily feeding was conducted by aspirating spent culture medium from each well and replacing with an equal volume of fresh medium. Plates were maintained at 37° C. in a humidified box, 5% CO2 throughout the duration of assay.
Primary screening assays were initiated by aspirating culture medium from each well followed by three washes in PBS to remove residual growth factors and serum. Test volumes of 80-100 μl per well were added back containing DMEM:F12 base medium (Invitrogen) supplemented with 0.5% FCS (HyClone) and 100 ng/ml activin A (R&D Biosystems) and 10 μM test compound. Positive control wells contained the same medium substituting 10-20 ng/ml Wnt3a (R&D Biosystems). Negative control wells contained base medium with 0.5% FCS without activin A or Wnt3a. Screening compounds were tested in triplicate. Wells were aspirated and fed again with identical solutions on day 2 of the assay. On days 3 and 4, all assay wells were aspirated and converted to DMEM:F 12 supplemented with 2% FCS and 100 ng/ml activin A with the exception of negative control wells which were maintained in DMEM:F12 base medium with 2% FCS.
On day 4 of assay, 15-20 μl of MTS (Promega) was added to each well and plates were incubated at 37° C. for 1.5 to 4 hours. Densitometric readings at OD490 were determined using a Molecular Devices spectrophotometer plate reader. Average readings for replicate sets were calculated along with standard deviation and coefficient of variation. Experimental wells were compared to the Activin A/Wnt3a positive control to calculate a percent control value as a measure of proliferation.
Strong hits are defined as greater than or equal to 120% of control values; moderate hits are defined as falling within the interval of 60-120% of control values. A significant number of compounds induce a proliferative response in this assay.

[2] = tested on: HNF-3beta expression in human embryonic stem cells (H9 line); test: High content screening assay: HNF-3beta protein expression (differentiation); format: cell-based; conditions: for fold induction at 10 µM: Homo sapiens, Embryonic stem cell, 10 μM test compound with 100 ng/ml activin A on days 1-2, H9, total intensity by IN Cell Analyzer, strong and moderate hits, read-out: HNF3β Expression, Fold over Wnt 3a/AA control
How it was run: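 H9 hESCs on MATRIGEL treated days 1-2 with 10 μM compound in DMEM:F12, 0.5% FCS, 100 ng/ml activin A; days 3-4 with 2% FCS plus activin A without compound. Fixed cells immunostained for Sox17 or HNF-3beta with Draq5 nuclear counterstain. Cell number and staining intensity quantified by high-content imaging, 12 fields/well.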

| SMILES | activity at 10 µM [1] [%] | Average (of Raw Data) [1] | fold induction at 10 µM [2] | HNF-3b Expression Total Intensity [2] | Average [1] | % Control Value (proliferation) [1] | Raw Data [1] |
| --- | --- | --- | --- | --- | --- | --- | --- |
| O=C1NC(=O)C(c2cn(CCCO)c3ncccc23)=C1c1ccccc1C(F)(F)F [Compound 16, 3-[1-(3-Hydroxypropyl)-1H-pyrrolo[2,3-b]pyridin-3-yl]-4-[2-(trifluoromethyl)phenyl]-1H-pyrrole-2,5-dione] | 85.5 | 0.8575 | 1.1 | – | – | – | – |
| O=C1NC(=O)C(c2cn(CCCO)c3ncccc23)=C1c1cccs1 [Compound 17, 3-[1-(3-Hydroxypropyl)-1H-pyrrolo[2,3-b]pyridin-3-yl]-4-thiophen-2-yl-1H-pyrrole-2,5-dione] | – | 0.4114 | – | 14201404 | – | – | – |
| O=C1NC(=O)C(c2cn(CCCO)c3ncccc23)=C1c1cc(Cl)sc1Cl [Compound 18, 3-(2,5-Dichlorothiophen-3-yl)-4-[1-(3-hydroxypropyl)-1H-pyrrolo[2,3-b]pyridin-3-yl]-1H-pyrrole-2,5-dione] | – | 0.1442 | – | 28439 | – | – | – |
| COCCCn1cc(C2=C(c3ccccc3O)C(=O)NC2=O)c2cccnc21 [Compound 22, 3-(2-Hydroxyphenyl)-4-{1-[3-(methyloxy)propyl]-1H-pyrrolo[2,3-b]pyridin-3-yl}-1H-pyrrole-2,5-dione] | – | 0.3385 | – | 13689421 | – | – | – |
| COc1ccccc1C1=C(c2cn(-c3ccc4ccccc4c3)c3ncccc23)C(=O)NC1=O [Compound 23, 3-[2-(Methyloxy)phenyl]-4-(1-naphthalen-2-yl-1H-pyrrolo[2,3-b]pyridin-3-yl)-1H-pyrrole-2,5-dione] | – | 0.4714 | – | 65100086 | – | – | – |
| COc1ccccc1C1=C(c2cn(CCCNC(=O)OC(C)(C)C)c3ncccc23)C(=O)NC1=O [Compound 26, 1,1-Dimethylethyl [3-(3-{4-[2-(methyloxy)phenyl]-2,5-dioxo-2,5-dihydro-1H-pyrrol-3-yl}-1H-pyrrolo[2,3-b]pyridin-1-yl)propyl]carbamate] | – | 0.3611 | – | 15725984 | – | – | – |
| COc1ccccc1C1=C(c2cn(CCCNC(C)=O)c3ncccc23)C(=O)NC1=O [Compound 27, N-[3-(3-{4-[2-(Methyloxy)phenyl]-2,5-dioxo-2,5-dihydro-1H-pyrrol-3-yl}-1H-pyrrolo[2,3-b]pyridin-1-yl)propyl]acetamide] | – | 0.1152 | – | 0 | – | – | – |
| O=C1NC(=O)C(c2cn(CCCO)c3ncccc23)=C1c1cnccn1 [Compound 47, 3-[1-(3-Hydroxypropyl)-1H-pyrrolo[2,3-b]pyridin-3-yl]-4-pyrazin-2-yl-1H-pyrrole-2,5-dione] | – | – | 1.22 | 560475000 | – | – | – |
| O=C1NC(=O)C(c2nn(CCCO)c3ccccc23)=C1c1cn(-c2cccnc2)c2ccc(Cl)cc12 [Compound 52, 3-(5-Chloro-1-pyridin-3-yl-1H-indol-3-yl)-4-[1-(3-hydroxypropyl)-1H-indazol-3-yl]-1H-pyrrole-2,5-dione] | 136 | – | – | – | 1.0617 | – | – |
| CN(C)CCCn1c2c(c3ccccc31)C1=C(C(=O)NC1=O)N(c1cccc(Cl)c1)C2 [Compound 101, 4-(3-Chlorophenyl)-6-[3-(dimethylamino)propyl]-5,6-dihydropyrrolo[3′,4′:5,6]pyrido[3,4-b]indole-1,3(2H,4H)-dione] | 155 | – | – | – | 1.0316 | – | – |
| CCN1CCOCCOCCn2cc(c3ccccc32)C2=C(C(=O)NC2=O)c2cn(c3ccccc23)CC1 [Compound 103, 14-Ethyl-6,7,9,10,13,14,15,16-octahydro-12H,23H-5,26:17,22-di(metheno)dibenzo[k,q]pyrrolo[3,4-n][1,4,7,10,19]dioxatriacyclohenicosine-23,25(24H)-dione] | – | – | – | – | 0.5236 | 68.7% | 0.7125 and 0.3347 |
| O=C1NC(=O)C(c2cn(CCOCCOCCO)c3ccccc23)=C1c1cn(CCO)c2ccccc12 [Compound 110, 3-[1-(2-Hydroxyethyl)-1H-indol-3-yl]-4-{1-[2-({2-[(2-hydroxyethyl)oxy]ethyl}oxy)ethyl]-1H-indol-3-yl}-1H-pyrrole-2,5-dione] | 161 | – | – | – | 1.0686 | – | – |
| CN1CCN(C)CCn2cc(c3ccccc32)C2=C(C(=O)NC2=O)c2cn(c3ccccc23)CC1 [Compound 111, 8,11-Dimethyl-6,7,8,9,10,11,12,13-octahydro-20H-5,23:14,19-di(metheno)dibenzo[k,q]pyrrolo[3,4-n][1,4,7,10]tetraazacyclooctadecine-20,22(21H)-dione] | – | – | – | – | 0.8784 | 128.7% | 1.0689 and 0.6879 |
| CN1CCOCCOCCN(C)CCn2cc(c3ccccc32)C2=C(C(=O)NC2=O)c2cn(c3ccccc23)CC1 [Compound 112, 12,21-Dimethyl-11,12,13,14,16,17,20,21,22,23-decahydro-1H,10H,19H-9,4:24,29-di(metheno)dibenzo[k,q]pyrrolo[3,4-n][1,4,7,10,19,22]dioxatetraazacyclotetracosine-1,3(2H)-dione] | – | – | – | – | 0.9024 | 132.8% | 1.0444 and 0.7603 |
| O=C1NC(=O)C2=C1c1cn(c3ccccc13)CCOCCOCCN(Cc1cccs1)CCn1cc2c2ccccc21 [Compound 133, 14-(2-Thienylmethyl)-6,7,9,10,13,14,15,16-octahydro-12H,23H-5,26:17,22-di(metheno)dibenzo[k,q]pyrrolo[3,4-n][1,4,7,10,19]dioxatriazacyclohenicosine-23,25(24H)-dione] | – | – | – | – | 1.0839 | 149.3% | 1.0786 and 1.0891 |
| O=C1NC(=O)C2=C1c1cn(c3ccccc13)CCOCCOCCN(Cc1cccc3ccccc13)CCn1cc2c2ccccc21 [Compound 136, 14-(Naphthalen-1-ylmethyl)-6,7,9,10,13,14,15,16-octahydro-12H,23H-5,26:17,22-di(metheno)dibenzo[k,q]pyrrolo[3,4-n][1,4,7,10,19]dioxatriazacyclohenicosine-23,25(24H)-dione] | – | – | – | – | 0.9509 and 0.9309 | 128.8% and 125.7% | 0.8618 and 1.0400 and 0.8430 and 1.0187 |
| O=C1NC(=O)C(c2cn(CCOCCOCCNC3CCCc4ccccc43)c3ccccc23)=C1c1cn(CCNC2CCCc3ccccc32)c2ccccc12 (centres unmarked) [Compound 144, 3-{1-[2-(1,2,3,4-Tetrahydronaphthalen-1-ylamino)ethyl]-1H-indol-3-yl}-4-(1-{2-[(2-{[2-(1,2,3,4-tetrahydronaphthalen-1-ylamino)ethyl]oxy}ethyl)oxy]ethyl}-1H-indol-3-yl)-1H-pyrrole-2,5-dione] | 84 | – | – | 231745000 | 1.2160 | – | – |
| CN(C)c1cccc(-n2cc(C3=C(c4nn(CCO)c5ccccc45)C(=O)NC3=O)c3ccccc32)c1 [Compound 145, 3-{1-[3-(Dimethylamino)phenyl]-1H-indol-3-yl}-4-[1-(2-hydroxyethyl)-1H-indazol-3-yl]-1H-pyrrole-2,5-dione] | 61.1 | – | – | 82808745 | 0.9191 | – | – |
| CN(C)c1ccc(-n2cc(C3=C(c4nn(CCO)c5ccccc45)C(=O)NC3=O)c3cc(Cl)ccc32)cn1 [Compound 148, 3-{5-Chloro-1-[6-(dimethylamino)pyridin-3-yl]-1H-indol-3-yl}-4-[1-(2-hydroxyethyl)-1H-indazol-3-yl]-1H-pyrrole-2,5-dione] | 106 | – | – | 248855000 | 1.4937 | – | – |
